According to patent publication US20220184222A1, “BICYCLE TOXIN CONJUGATES AND USES THEREOF” (BicycleTx Limited, priority 2019, published 2022):
Starred links: 1 amine or outer side, 2 acyl side, 3 side chain; linkers in the order of their positions; H or OH if unused. Non-standard residues stand in square brackets, D forms with d. Residues, ends and D or L forms follow the SMILES beside them. *: point of attachment. Dolaproine = CO[C@@H]([C@@H]1CCCN1)[C@@H](C)C(=O)O; Dil = CC[C@H](C)[C@H](NC)[C@@H](CC(=O)O)OC; PABC = O=C(OCc1ccc(N[*:1])cc1)[*:2]; X1 = O=C(CCCC(=O)*)ON1C(=O)CCC1=O; X2 = C[C@@H](N*)[C@@H](O)c1ccccc1; Cit = NC(=O)NCCC[C@H](N)C(=O)O; NMeV = CN[C@H](C(=O)O)C(C)C

Key:
CTG-2540 = experiment: Champions TumorGraft NSCLC PDX efficacy, model CTG-2540; format: in vivo, Mus musculus
Experimental: (§1) Mice were implanted subcutaneously into the left flank with tumor fragments from one of the various models. After tumors grew to an average of 150-300 mm^3, mice were treated by IV administration Q7Dx4 (n=2) with vehicle or 3 mg/kg of BT5528. Effects on tumor growth were evaluated by measuring percent tumor growth inhibition (% TGI), and the number of complete responders (CR), partial responders (PR), and tumor-free survivors (TFS). Tolerability was assessed by body weight loss, lethality, and clinical signs of adverse treatment-related side effects. Tumor volumes and body weights were measured twice a week.
(§2) Dosing solutions of BT5528 […] were pre-formulated. These dosing solutions were stored at −80° C. in the dark. On each day of dosing, a frozen aliquot of each test agent was thawed, stored at 2-8° C. and used for dosing.
(§3) The animals used in this study are described below: • Species: Mus musculus • Strain: Athymic Nude-Foxn1^nu (immune-compromised) • Source: Envigo (Indianapolis, Ind., USA) • Number of animals per group: 2 • Age and sex: At least 6-8 weeks of age at start of dosing, female • Weight: At least 18 grams at start of dosing • Acclimation period: 3 days
(§4) Stock mice were implanted with tumor cells from Champions TumorGraft® models CTG-0160, CTG-0170, CTG-0178, CTG-0192, CTG-0363, CTG-0808, CTG-0838, CTG-0848, CTG-1212, CTG-1502, CTG-1535, CTG-2011, CTG-2393, CTG-2539 or CTG-2540. After the tumors reached 1000-1500 mm^3, they were harvested and the tumor fragments (approximately 5×5×5 mm^3) were implanted SC in the left flank of the female study mice. Each animal was implanted with a specific passage lot and documented. Tumor growth was monitored twice a week using digital calipers and the tumor volume (TV) was calculated using the formula (0.52×[length×width^2]). When the TV reached an average volume of 150-300 mm^3, animals were matched by tumor size and assigned into Vehicle Control and treatment groups (n=2/group) and dosing was initiated on Day 0. After the initiation of dosing on Day 0, animals were weighed twice per week using a digital scale and TV was measured twice per week and also on the final day of study. The study was completed when the mean tumor volume of Vehicle Control reached 1500 mm^3 or up to Day 60, whichever occurred first.
(§5) Beginning on Day 0, animals were observed daily and weighed twice weekly using a digital scale; data including individual and mean gram weights, mean percent weight change versus Day 0 (% vD0) were recorded for each group and % vD0 plotted at study completion. […] Treatment resulting in a mean % vD0>20% and/or >10% mortality was considered above the maximum tolerated dose. Maximum mean % vD0 (weight nadir) for each treatment group was reported at study completion.
(§6) Inhibition of tumor growth was determined by calculating the percent TGI (100%×[1−(final MTV−initial MTV of a treated group)/(final MTV−initial MTV of the control group)]). Treatment started on Day 0.
(§7) Additional endpoints used to evaluate efficacy were: the number of complete responders (CR), partial responders (PR), and tumor-free survivors (TFS). PRs were considered exclusive of CRs, as were TFS.
(§8) Statistical analyses of anti-tumor efficacy were performed using one-way ANOVA followed by Dunnett's multiple comparisons test (GraphPad Prism version 8.2.0). Significant p-values=<0.05.
Animals were dosed according to the schedule on Table 7-1. The study was terminated on Day 28.

CTG-1535 = experiment: Champions TumorGraft NSCLC PDX efficacy, model CTG-1535; format: in vivo, Mus musculus
Experimental: as §1, with “After tumors grew to an average of 150-300 mm^3, mice were treated by IV administration Q7Dx4 (n=2) with vehicle or 3 mg/kg of BT5528.” left out
as §2, §3, §4, §5, §6, §7, §8
Animals were dosed according to the schedule on Table 7-1. The study was terminated on Day 35.

[1] = CTG-2540, 3 mg/kg IV Q7Dx4, Day 0-28
[2] = CTG-1535, 3 mg/kg IV Q7Dx5, Day 0-35

CC[C@H](C)[C@@H]([C@@H](CC(=O)N1CCC[C@H]1[C@H](OC)[C@@H](C)C(=O)N[C@H](C)[C@@H](O)c1ccccc1)OC)N(C)C(=O)[C@@H](NC(=O)[C@H](C(C)C)N(C)C(=O)OCc1ccc(NC(=O)[C@H](CCCNC(N)=O)NC(=O)[C@@H](NC(=O)CCCC(=O)ON2C(=O)CCC2=O)C(C)C)cc1)C(C)C [BT5528] (X1-V[Cit][PABC][NMeV]V[Dil][Dolaproine]-X2)
mean body weight loss (CTG-2540; 3 mg/kg IV Q7Dx4): no mean body weight loss
MTV (mean tumor volume) (CTG-2540; 3 mg/kg IV Q7Dx4, Day 28): 692±156 mm^3
TGI (CTG-2540; 3 mg/kg IV Q7Dx4, Day 28): 75%
# CR (complete responders) (CTG-2540; [1]): 0/0/0
# PR (partial responders) (CTG-2540; [1]): 0/0/0
# TFS (tumor-free survivors) (CTG-2540; [1]): 0/0/0
% TGI (CTG-2540; CTG-2540, 3 mg/kg IV Q7Dx4, Day 28): 75%
Day 28 Tumor Volume Mean TV ± SEM (CTG-2540; CTG-2540, BT5528 3 mg/kg IV Q7Dx4, Day 28, n=2): 692 ± 156 mm^3
MTV (mean tumor volume) (CTG-1535; 3 mg/kg IV Q7Dx5, Day 35): 307±91 mm^3
TGI (CTG-1535; 3 mg/kg IV Q7Dx5, Day 35): 85%
# CR (complete responders) (CTG-1535; [2]): 0/0/0
# PR (partial responders) (CTG-1535; [2]): 0/0/0
# TFS (tumor-free survivors) (CTG-1535; [2]): 0/0/0
% TGI (CTG-1535; CTG-1535, 3 mg/kg IV Q7Dx5, Day 35): 85%
Day 35 Tumor Volume Mean TV ± SEM (CTG-1535; CTG-1535, BT5528 3 mg/kg IV Q7Dx5, Day 35, n=2): 307 ± 91 mm^3
